Results: US10046038B2, “Leptospira with increased antigenic mass” (priority 2012, dated 2018)
Read-outs that look alike come from different tables or passages of the source.

Tests used:
Leptospira = settings: most serogroups other than Canicola; alpha or gamma isomer
[1] = test system: Leptospira serogroup Icterohaemorrhagiae; assay: Biomass (total cell count) and toxicity in fermenter culture; assay type: cell-based, L. interrogans (sensu lato); settings: additional 400 μg/ml pure linoleic acid in ethanol; EMJH with high LA BSA
Method: (§1) During all fermentation experiments the temperature was controlled at about 29° C. The medium was aerated with headspace airflow, and the dissolved oxygen (pO2) concentration was controlled by automatic variation of the agitation-rate, to maintain a set pO2 concentration. Temperature, pH and pO2 concentration were monitored online, but pH and foam formation were not controlled.

[2] = test system: Leptospira serogroup Tarassovi; assay type: cell-based, L. interrogans (sensu lato); settings: EMJH standard BSA, vs unsupplemented reference culture
Method: (§2) All experiments were performed in 0.5, 2 or 20 L working volume, computer-controlled fermenters (Sartorius), which were filled with 0.5, 1 or 10 L sterile-filtered EMJH medium, respectively. The standard EMJH medium contained 1% w/v BSA and 0.125% w/v polysorbate 80. The pH of the medium was 7.4 ±0.1 at start. The fermenter was inoculated with 5% v/v serogroup lcterohaemorrhagiae pre-culture (passage 5), giving an inoculation density of 2-4×10^7 cells/ml at day 0.
(§3) Supplementation was done either with pure linoleic acid (Sigma Aldrich, >99% pure) as a 10% v/v stock in absolute ethanol (JT Baker). Alternatively, linoleic acid was supplemented by using a BSA that was created with a high level of linoleic acid (high LA BSA). This high LA BSA was used either to replace a standard BSA in EMJH medium, or was used in addition to BSA in the EMJH medium, in which case it was added as a 25% w/v stock solution in sterile water. The high LA BSA or the pure linoleic acid/ethanol supplements were fed to a fermenter over the course of 4 hours, at 0.1-0.2 ml/hour, until the fermenter culture had received a desired total amount of linoleic acid. Different total available levels of linoleic acid have been tested, of between about 5 and 425 μg/ml in the total volume. The fermenter cultures of Leptospira were supplemented at different cell-densities i.e. at early-, mid- or end phase culture.
(§4) Daily 5 ml samples were taken aseptically, directly from the fermenter, for analyses of total cell count (by Petroff-Hausser counting chamber); antigenic mass (by antigen amount Elisa); inactivated cells; and for profiling of the fatty acid type and-relative amounts (by gas chromatography) in the culture medium.
(§5) Samples were inactivated with 0.1 or 0.2% v/v BPL, at 29° C. for 16-24 hours. The inactivated Leptospira were tested in an antigen Elisa within 24 hours.
(§6) For a reference see: R. A. Hartskeerl et al., (International course on laboratory methods for the diagnosis of Leptospirosis, 4th Edition, 1 Apr. 2004. Royal Tropical Institute, Amsterdam).
(§7) The Elisa's were set up as capture assays, whereby the same moab was used for coating and for detection.
A reference standard was prepared for each Leptospira strain that was tested by antigen Elisa. The standard is a batch of monovalent Leptospira antigen, from inactivated cells. This was prepared using common techniques, essentially by proliferating a specific strain of Leptospira in EMJH medium as described above, and was inactivated as described before. Next the standard was concentrated and/or diluted in phosphate buffered saline, to contain about 1×10^9 cells/ml. An arbitrary number of antigen units was affixed to the sample, for example: 1000 Units/ml. When the standard needed replenishing, a subsequent preparation of the same standard, was compared and titrated alongside the old standard several times, before replacing it.
As before, the average antigenic mass score by Elisa was calculated per 1×10^9 cells (pre-inactivation). […] The average antigenic mass 1×10^9 cells of the reference culture was set at 0% increase.
Both alpha-and gamma C18:3 were purchased as pure chemicals (>98%).

[3] = test system: Leptospira serogroup Grippotyphosa; assay type: cell-based, L. interrogans (sensu lato); settings: supplementation with linoleic acid; days 4 and 5
[4] = test system: Leptospira serogroup Icterohaemorrhagiae; assay: Antigenic mass of fermenter culture by antigen Elisa; assay type: cell-based, L. interrogans (sensu lato); settings: for relative Ag. mass (%): non-supplemented = 100
Method: A working seed of a strain of L. interrogans was inoculated into EMJH medium and incubated at 29° C. for 3 to 5 days. If needed up to 5 consecutive pre-culture passages could be made, whereby the pre-cultures were visually inspected for sufficient proliferation (turbidity) as criterion for transfer to the next passage.
as §2, §1
In comparative experiments up to 4 fermenters were run in parallel, which started off simultaneously with the same medium and Leptospira inoculum. One fermenter then usually contained only standard EMJH medium and served as reference, while in the others different supplementations of polyunsaturated C18 fatty acid were made.
as §3, §4, §5, §6, §7
A reference standard was prepared for each Leptospira strain that was tested by antigen Elisa. The standard is a batch of monovalent Leptospira antigen, from inactivated cells. This was prepared using common techniques, essentially by proliferating a specific strain of Leptospira in EMJH medium as described above, and was inactivated as described before.

[5] = test system: Leptospira serogroup Tarassovi; assay: Biomass and toxicity in fermenter culture; assay type: cell-based, L. interrogans (sensu lato); settings: 300 μg/ml C18:2; EMJH standard BSA
Method: In a supplementation similar to that described in Example 6 above, the effect of supplementation with different amounts of C18:2 fatty acid on the biomass and the antigenic mass of a culture of Leptospira serogroup Tarassovi in EMJH medium with standard BSA was tested.

[6] = test system: Leptospira serogroup Australis (serovar Bratislava); assay type: cell-based, L. interrogans (sensu lato); settings: linoleic acid supplementation of low LA BSA medium

`CC/C=C\C/C=C\C/C=C\CCCCCCCC(=O)O` [C18:3, Linolenic acid] was tested, and the “supplementation level showing cytotoxicity” value (Leptospira) was no less than 200 µg/mL.

With `CCCCCC=CCC=CCCCCCCCC(=O)O` [linoleic acid, 9, 12-octadecadienoic acid] the “toxicity for the bacteria (cell numbers after supplementation)” value [1] was “induced toxicity”, the “increase in antigenic mass per unit of biomass” value ([2]; 100 μg/ml C18:2) was 67% and the “increase in antigenic mass per unit of biomass” value ([2]; 200 μg/ml C18:2) was 99%. The “increase in the antigenic mass” value [3] was 63%, the “Ag. mass, Ag U/10^9 cells/ml” value ([4]; 100 μg/ml added at 1 × 10^8 cells/ml, total 105 μg/ml, average of days 4-5) was 1783 Ag U/10^9 cells/ml and the “relative Ag. mass (%)” value ([4]; 100 μg/ml added at 1 × 10^8 cells/ml, average of days 4-5) was 226%. The “Ag. mass, Ag U/10^9 cells/ml” value ([4]; 100 μg/ml added at 5 × 10^8 cells/ml, total 105 μg/ml, average of days 4-5) was 1564 Ag U/10^9 cells/ml, the “relative Ag. mass (%)” value ([4]; 100 μg/ml added at 5 × 10^8 cells/ml, average of days 4-5) was 198% and the “Ag. mass, Ag U/10^9 cells/ml” value ([4]; 100 μg/ml added at 9 × 10^8 cells/ml, total 105 μg/ml, average of days 4-5) was 1656 Ag U/10^9 cells/ml. For the same compound, the “relative Ag. mass (%)” value ([4]; 100 μg/ml added at 9 × 10^8 cells/ml, average of days 4-5) was 210%, the antigenic mass ([4]; 100 μg/ml pure linoleic acid in ethanol added on day 2 (mid-exponential) to EMJH with high LA BSA, average of days 3-5) was 1767 Ag. U/1×10^9 cells and the “increase in relative antigenic mass” value ([4]; 100 μg/ml single fatty acid, FIGS. 37 and 38) was 77%. The “increase of antigenic mass” value ([4]; 25 instead of 5 μg/ml linoleic acid available) was 124%, the “increase of the antigenic mass (in words)” value ([4]; additional 200 μg/ml pure linoleic acid, EMJH with high LA BSA) was “slightly less increase of the antigenic mass compared to that of the 100 μg/ml group” and the “Ag. mass, Ag U/10^9 cells/ml” value ([4]; supplem. pure C18:2 75 μg/ml, total 80 μg/ml, EMJH standard BSA, average of days 3-5) was 1450 Ag U/10^9 cells/ml. For the same compound, the “relative Ag. mass (%)” value ([4]; supplem. pure C18:2 75 μg/ml, total 80 μg/ml, average of days 3-5) was 199%, the “Ag. mass, Ag U/10^9 cells/ml” value ([4]; supplem. pure C18:2 150 μg/ml, total 155 μg/ml, EMJH standard BSA, average of days 3-5) was 1550 Ag U/10^9 cells/ml and the “relative Ag. mass (%)” value ([4]; supplem. pure C18:2 150 μg/ml, total 155 μg/ml, average of days 3-5) was 213%. For the same compound, the “toxicity to the culture” value [5] was “toxic” and the “increase in antigenic mass” value [6] was 45%.
